Assay results: ChEMBL document CHEMBL3045468, “I2 catalyzed FriedelCrafts alkylation reaction of substituted anilines with ninhydrin: formation of novel products and their antimicrobial evaluation” (2013)
≈ marks a conversion by molar mass, not a printed value. Calls of active or inactive are those of the source. No cut-off for these calls is given here.

Columns and labels:
Assay type in all cases: functional
Staphylococcus aureus = assay: Antibacterial activity against Staphylococcus aureus 29737 clinical isolate assessed as growth inhibition at 1 mg/ml after 24 hr by NCCLS agar diffusion method; conditions: for zone of inhibition at 1000 µg/mL: Staphylococcus aureus, 29737, 24 h, read-out: DIZ
Bacillus pumilus = assay: Antibacterial activity against Bacillus pumilus 11778 clinical isolate assessed as growth inhibition at 1 mg/ml after 24 hr by NCCLS agar diffusion method; conditions: for zone of inhibition at 1000 µg/mL: Bacillus pumilus, 11778, 24 h, read-out: DIZ
Shigella dysenteriae = assay: Antibacterial activity against Shigella dysenteriae 15 clinical isolate assessed as growth inhibition at 1 mg/ml after 24 hr by NCCLS agar diffusion method; conditions: for zone of inhibition at 1000 µg/mL: Shigella dysenteriae, 15, 24 h, read-out: DIZ
Escherichia coli = assay: Antibacterial activity against Escherichia coli 319 clinical isolate assessed as growth inhibition at 1 mg/ml after 24 hr by NCCLS agar diffusion method; conditions: for zone of inhibition at 1000 µg/mL: Escherichia coli, 319, 24 h, read-out: DIZ
Klebsiella pneumoniae = assay: Antibacterial activity against Klebsiella pneumoniae J/I/4 clinical isolate assessed as growth inhibition at 1 mg/ml after 24 hr by NCCLS agar diffusion method; conditions: for zone of inhibition at 1000 µg/mL: J/I/4, 24 h, read-out: DIZ
Pseudomonas aeruginosa = assay: Antibacterial activity against Pseudomonas aeruginosa 71 clinical isolate assessed as growth inhibition at 1 mg/ml after 24 hr by NCCLS agar diffusion method
Vibrio cholerae = assay: Antibacterial activity against Vibrio cholerae 759 clinical isolate assessed as growth inhibition at 1 mg/ml after 24 hr by NCCLS agar diffusion method; conditions: for zone of inhibition at 1000 µg/mL: Vibrio cholerae, 759, 24 h, read-out: DIZ
Micrococcus luteus = assay: Antibacterial activity against Micrococcus luteus ATCC 9341 clinical isolate assessed as growth inhibition at 1 mg/ml after 24 hr by NCCLS agar diffusion method
Cryptococcus neoformans [1] = assay: Antifungal activity against Cryptococcus neoformans clinical isolate assessed as growth inhibition after 96 hr by agar dilution method
Candida albicans = assay: Antifungal activity against Candida albicans clinical isolate assessed as growth inhibition after 96 hr by agar dilution method
Candida tropicalis = assay: Antifungal activity against Candida tropicalis clinical isolate assessed as growth inhibition after 96 hr by agar dilution method
Aspergillus niger [2] = assay: Antifungal activity against Aspergillus niger clinical isolate assessed as growth inhibition after 96 hr by agar dilution method
Aspergillus niger [3] = assay: Antifungal activity against Aspergillus niger clinical isolate assessed as growth inhibition at 1 mg/ml after 96 hr by NCCLS agar diffusion method; conditions: read-out: DIZ
Cryptococcus neoformans [4] = assay: Antifungal activity against Cryptococcus neoformans clinical isolate assessed as growth inhibition at 1 mg/ml after 96 hr by NCCLS agar diffusion method; conditions: read-out: DIZ

Nc1ccc(C2(c3ccc(N)c([N+](=O)[O-])c3)C(=O)c3ccccc3C2=O)cc1[N+](=O)[O-]
zone of inhibition at 1000 µg/mL (Staphylococcus aureus): 8 mm | growth inhibition (GI) (Bacillus pumilus): inactive | growth inhibition (GI) (Shigella dysenteriae): inactive | growth inhibition (GI) (Escherichia coli): inactive | growth inhibition (GI) (Klebsiella pneumoniae): inactive | growth inhibition (GI) (Pseudomonas aeruginosa): inactive | growth inhibition (GI) (Vibrio cholerae): inactive | growth inhibition (GI) (Micrococcus luteus): inactive

CCN(CC)c1ccc(C2(O)C(=O)c3ccccc3C2=O)cc1
growth inhibition (GI) (Staphylococcus aureus): inactive | zone of inhibition at 1000 µg/mL (Bacillus pumilus): 7 mm | zone of inhibition at 1000 µg/mL (Shigella dysenteriae): 7 mm | zone of inhibition at 1000 µg/mL (Escherichia coli): 9 mm | growth inhibition (GI) (Klebsiella pneumoniae): inactive | growth inhibition (GI) (Pseudomonas aeruginosa): inactive | growth inhibition (GI) (Vibrio cholerae): inactive | growth inhibition (GI) (Micrococcus luteus): inactive

COc1cc(C2(c3ccc(N)c(OC)c3)C(=O)c3ccccc3C2=O)ccc1N
growth inhibition (GI) (Staphylococcus aureus): inactive | zone of inhibition at 1000 µg/mL (Bacillus pumilus): 8 mm | growth inhibition (GI) (Shigella dysenteriae): inactive | growth inhibition (GI) (Escherichia coli): inactive | zone of inhibition at 1000 µg/mL (Klebsiella pneumoniae): 7 mm | growth inhibition (GI) (Pseudomonas aeruginosa): inactive | zone of inhibition at 1000 µg/mL (Vibrio cholerae): 7 mm | growth inhibition (GI) (Micrococcus luteus): inactive

CN(C)c1ccc(C2(O)C(=O)c3ccccc3C2=O)cc1
zone of inhibition at 1000 µg/mL (Staphylococcus aureus): 7 mm | growth inhibition (GI) (Bacillus pumilus): inactive | growth inhibition (GI) (Shigella dysenteriae): inactive | zone of inhibition at 1000 µg/mL (Escherichia coli): 7 mm | growth inhibition (GI) (Klebsiella pneumoniae): inactive | growth inhibition (GI) (Pseudomonas aeruginosa): inactive | growth inhibition (GI) (Vibrio cholerae): inactive | growth inhibition (GI) (Micrococcus luteus): inactive

OC(Cn1cncn1)(Cn1cncn1)c1ccc(F)cc1F [FLUCONAZOLE]
MIC (Cryptococcus neoformans [1]): 8 µg/mL (≈ 26.1 µM) | MIC (Candida albicans): 4 µg/mL (≈ 13.1 µM) | MIC (Candida tropicalis): 8 µg/mL (≈ 26.1 µM) | MIC (Aspergillus niger [2]): 10 µg/mL (≈ 32.7 µM)

CNc1ccc(C2(c3ccc(NC)cc3)C(=O)c3ccccc3C2=O)cc1
growth inhibition (GI) (Staphylococcus aureus): inactive | growth inhibition (GI) (Bacillus pumilus): inactive | growth inhibition (GI) (Shigella dysenteriae): inactive | zone of inhibition at 1000 µg/mL (Escherichia coli): 7 mm | zone of inhibition at 1000 µg/mL (Klebsiella pneumoniae): 7.5 mm | growth inhibition (GI) (Pseudomonas aeruginosa): inactive | zone of inhibition at 1000 µg/mL (Vibrio cholerae): 8 mm | growth inhibition (GI) (Micrococcus luteus): inactive

Nc1ccc(C2(O)C(=O)c3ccccc3C2=O)c2ncccc12
growth inhibition (GI) (Staphylococcus aureus): inactive | growth inhibition (GI) (Bacillus pumilus): inactive | growth inhibition (GI) (Shigella dysenteriae): inactive | zone of inhibition at 1000 µg/mL (Escherichia coli): 8 mm | growth inhibition (GI) (Klebsiella pneumoniae): inactive | growth inhibition (GI) (Pseudomonas aeruginosa): inactive | growth inhibition (GI) (Vibrio cholerae): inactive | growth inhibition (GI) (Micrococcus luteus): inactive

Nc1ccc(C2(c3ccc(N)c(I)c3)C(=O)c3ccccc3C2=O)cc1I
zone of inhibition at 1000 µg/mL (Staphylococcus aureus): 8 mm | growth inhibition (GI) (Bacillus pumilus): inactive | growth inhibition (GI) (Shigella dysenteriae): inactive | growth inhibition (GI) (Escherichia coli): inactive | growth inhibition (GI) (Klebsiella pneumoniae): inactive | zone of inhibition at 1000 µg/mL (Pseudomonas aeruginosa; Pseudomonas aeruginosa, 71, 24 h, read-out: DIZ): 8 mm | growth inhibition (GI) (Vibrio cholerae): inactive | zone of inhibition at 1000 µg/mL (Micrococcus luteus; ATCC 9341, 24 h, read-out: DIZ): 8 mm

Nc1c(Cl)cc(Cl)cc1C1(Nc2ccc(Cl)cc2Cl)C(=O)c2ccccc2C1=O
zone of inhibition at 1000 µg/mL (Aspergillus niger [3]): 8 mm | growth inhibition (GI) (Staphylococcus aureus): inactive | growth inhibition (GI) (Bacillus pumilus): inactive | zone of inhibition at 1000 µg/mL (Shigella dysenteriae): 7 mm | zone of inhibition at 1000 µg/mL (Escherichia coli): 8 mm | zone of inhibition at 1000 µg/mL (Cryptococcus neoformans [4]): 8 mm | zone of inhibition at 1000 µg/mL (Klebsiella pneumoniae): 7 mm | MIC (Candida tropicalis): 1000 µg/mL (≈ 2150 µM) | growth inhibition (GI) (Pseudomonas aeruginosa): inactive | MIC (Aspergillus niger [2]): 1000 µg/mL (≈ 2150 µM) | zone of inhibition at 1000 µg/mL (Vibrio cholerae): 7 mm | growth inhibition (GI) (Micrococcus luteus): inactive
